Source: publication PMC7665585, “Antidepressive effect of an inward rectifier K^+ channel blocker peptide, tertiapin-RQ” (PLoS ONE, 2020)
Bridge positions count the residues as written; N and C are the ends. Peptide text beside a SMILES is read from it.

How the values were obtained:
[1] = tested on: Male ICR mice; experiment: Tail suspension test (TST); format: in vivo, mouse; settings: 750 pmole i.c.v., 30 min before test, 5 min recording
Protocol: We performed mouse behavioral experiments in accordance with our previous study. Male ICR mice (n = 199 in total) aged 5 weeks old were purchased from Shimizu Laboratory Supplies (Kyoto, Japan) and maintained in an animal facility for 7–12 days. They had free access to food and water and were kept in a 12-h light/dark cycle (08:00–20:00). Experiments were carried out between 11:00 and 17:00 in a quiet and air-conditioned experimental room, to which mice were habituated for 30–60 min before each experiment. Animal experiments were performed in accordance with the guidelines of the Physiological Society of Japan and were approved by the Committee for Animal Experiments of Kurashiki University of Science and the Arts. Peptides were dissolved in phosphate-buffered saline (PBS). Peptides were injected intracerebroventricularly (i.c.v.) 30 min before behavioral tests (typically 5 μL/mouse), according to a previous study. The mouse was placed into an anesthetizing jar, to which isoflurane (0.2 mL) was added immediately before. After confirming that the mouse was deeply anesthetized we injected the peptide into the right cerebral ventricle over 30 seconds and the injection needle was kept for 1 min after the injection (i.c.v. coordinates: 0 mm caudal to bregma, 1.0 mm lateral to the midline, and 3.5 mm below the skull). The mouse was placed in a cage set on a heating pad (approximately 33°C) for a few minutes until it spontaneously started to move, and then it was put back into its home cage. Each animal was used only once, except for the wheel running test, which was carried out immediately after the elevated plus-maze.
The tail suspension test (TST) was performed in accordance with the method reported previously. The mouse was hung on a hook using adhesive tape placed 2 cm from the extremity of its tail 50 cm above a table. The amount of time spent immobile was recorded for 5 min.

[2] = tested on: Male ICR mice; experiment: Elevated plus-maze (EPM); format: in vivo, mouse; settings: i.c.v., 5 min
Protocol: We performed mouse behavioral experiments in accordance with our previous study. Male ICR mice (n = 199 in total) aged 5 weeks old were purchased from Shimizu Laboratory Supplies (Kyoto, Japan) and maintained in an animal facility for 7–12 days. They had free access to food and water and were kept in a 12-h light/dark cycle (08:00–20:00). Experiments were carried out between 11:00 and 17:00 in a quiet and air-conditioned experimental room, to which mice were habituated for 30–60 min before each experiment. Animal experiments were performed in accordance with the guidelines of the Physiological Society of Japan and were approved by the Committee for Animal Experiments of Kurashiki University of Science and the Arts. Peptides were dissolved in phosphate-buffered saline (PBS). Peptides were injected intracerebroventricularly (i.c.v.) 30 min before behavioral tests (typically 5 μL/mouse), according to a previous study. The mouse was placed into an anesthetizing jar, to which isoflurane (0.2 mL) was added immediately before. […]
The elevated plus maze (EPM) apparatus consisted of four arms set in a cross pattern from a neutral central square (6 × 6 cm). […] The total number of entries to open arms and time spent in the open arms was measured. […]

SMILES: CC[C@H](C)[C@@H]1NC(=O)[C@H](CCCNC(=N)N)NC(=O)[C@H](CC(N)=O)NC(=O)[C@@H]2CSSC[C@@H](C(=O)NCC(=O)N[C@@H](CCCCN)C(=O)N[C@@H](CCCCN)C(N)=O)NC(=O)[C@H](CCCCN)NC(=O)[C@H](CCCCN)NC(=O)[C@H](Cc3c[nH]c4ccccc34)NC(=O)[C@H](CSSC[C@H](NC(=O)[C@H](CC(C)C)NC(=O)[C@H](C)N)C(=O)N[C@@H](CC(N)=O)C(=O)N2)NC(=O)[C@H](CCC(N)=O)NC(=O)[C@H](CC(C)C)NC(=O)[C@@H]2CCCN2C(=O)[C@H]([C@@H](C)CC)NC(=O)[C@H]([C@@H](C)CC)NC1=O [Peptide 3, TPN-LQ] (H-ALCNCNRIIIPLQCWKKCGKK-NH2; disulfide 3-14, 5-18; N-terminus and C-terminus assumed)
- immobile time in TST [1]: decreased the immobile time
- number of entries to the open arms in EPM [2]: decreased
- time spent in the open arms in EPM [2]: decreased
